In US5401853A, “Thiadiazole derivatives for the treatment of depressive states” (Laboratorio Farmaceutico C.T. S.r.l., priority 1992, dated 1995):
Like-named read-outs stand apart in the source and are kept apart here.

Columns and labels:
mice = assay: Dispair test (Porsolt) in mice; format: in vivo, Swiss strain male mice (CD-1 Charles River); settings: for immobility duration: 1 hour before test; for minimal effective dose: Dispair test, i.p., read-out: active dosage
Procedure: This behaviouristic test conceived by Porsolt (1977 --Nature, 266 730-732 is generally utilized to evaluate the antidepressant activity.
Swiss strain male mice of average weight of 30 g (CD -1 Charles River) casually assigned to the different treatment groups are used.
The method consists in placing the animal in a plexiglas cylinder 25 cm high and with a diameter of 9 cm filled with water at 24° C. up to a level of 6 cm.
The test lasts 6 minutes and the time in which the animal lets itself float without reacting is measured starting from the 2nd minute (immobility duration).
The animals ape treated by intraperitoneal route (injection volume 10 ml/kg) 1 hour before the test.
The evaluation is carried out in blind. The statistical analysis of the results is carried out where it is possible by means of the T-Student test, otherwise the non parametric test of Mann Whitney is used.

[1] = Acute toxicity (LD50) in mice; settings: mouse, in vivo, read-out: LD50 (DL50)
rats = assay: Social Interaction test in rats (anxiolythic activity); format: in vivo, Sprague-Dawley male rats; settings: for Social Interaction increase (%): 1 hour before test, vs controls
Description: The behaviouristic Social Interaction test found by FILE was used. (Animal models of psychiatric disorders, vol. 1 Karger, Basel, pp 151-166).
It consists in an experimental procedure permitting to evaluate the influence of the pharmacological treatment on the spontaneous behaviour of the rat, by means of the social component which in this animal is particularly accentuated.
Sprague-Dawley male rats weighing about 250 g are used. After a normal stabling period (2 weeks), the animal are isolated in smaller cages (267×207×140 mm surface 410 cm^2) for a period of about 5 days.
Then the rats are gathered into couples, avoiding that weight difference between the two animals overcomes 10 g and that the couple components had not previously stabled together.
The couple thus gathered are assigned to the respective treatment group.
Diazepam was utilized as the positive control drug: 1,25 mg/kg are intraperitoneally administered 30' before carrying out the test.
The compounds to be tested are administered 1 hour before carrying out the test.
The box utilized [55×55×30 cm (height)] for the animal observation is white, completely washable and provided with a floor split up into 25 squares.
A 100 Watt lamp is placed upon the box at 50 cm from the floor. The test is realized in a remote room whose only light source is represented by the lamp lighting the box.
The evaluation is carried out in blind. The animals are observed indirectly, by means of a mirror suitably placed.
Evaluated parameters: time passed in Social Interaction (sniffing pursuit, grooming, boxing etc.).
The box is systematically cleaned up after every test.
The results are expressed as a function of a percentage increase of Social Interaction of the treated animals in comparison with the controls.

Solubility in solvents = format: physicochemical
[2] = Mus musculus, ip, 1 h, 0.25 mg/kg i.p., vs control (dosage 0), read-out: immobility duration < % (decrease)
[3] = Mus musculus, ip, 1 h, 0.5 mg/kg i.p., vs control (dosage 0), read-out: immobility duration < % (decrease)
[4] = Mus musculus, ip, 1 h, 10 mg/kg i.p., vs control (dosage 0), read-out: immobility duration < % (decrease)
[5] = Mus musculus, ip, 1 h, 0.1 mg/kg i.p., vs control (dosage 0), read-out: immobility duration < % (decrease)
[6] = Mus musculus, ip, 1 h, 1 mg/kg i.p., vs control (dosage 0), read-out: immobility duration < % (decrease)

Structure (SMILES): CC(=O)Nc1nnc(SCc2ccccc2)s1 [B17, 2-acetylamino-5-benzylmercapto-1,3,4-thiadiazole]
- immobility duration (mice; 0.03 mg/kg i.p.): 198 ± 16
- immobility duration (mice; 0.06 mg/kg i.p.): 159 ± 38
- immobility duration (mice; 0.125 mg/kg i.p.): 167 ± 22
- immobility duration (mice; 0.25 mg/kg i.p.): 183 ± 20
- immobility duration (mice; 0.5 mg/kg i.p.): 182 ± 25
- immobility duration (mice; 1 mg/kg i.p.): 187 ± 36
- inhibition in vivo at 0.06 mg/kg (mice; Mus musculus, ip, 1 h, 0.06 mg/kg i.p., vs control (dosage 0), read-out: immobility duration < % (decrease)): 22%
- inhibition in vivo at 0.125 mg/kg (mice; Mus musculus, ip, 1 h, 0.125 mg/kg i.p., vs control (dosage 0), read-out: immobility duration < % (decrease)): 17%
- inhibition in vivo at 0.25 mg/kg (mice; [2]): 10%
- inhibition in vivo at 0.5 mg/kg (mice; [3]): 10%
- minimal effective dose (mice; Mus musculus, ip, 1 h): ~0.5 mg/kg
- LD50 ([1]; ip): > 1000 mg/kg
- LD50 ([1]; po, per os): > 1000 mg/kg

Structure (SMILES): CN(C)CCCN1c2ccccc2CCc2ccccc21 [imipramine, reference compound]
- minimal effective dose (mice; Mus musculus, ip, 1 h): 20 mg/kg

Structure (SMILES): CSc1nnc(N)s1 [B21]
- immobility duration (mice; 20 mg/kg i.p.): 187 ± 13
- immobility duration (mice; 25 mg/kg i.p.): 175 ± 31
- immobility duration (mice; 50 mg/kg i.p.): 161 ± 26
- immobility duration (mice; 60 mg/kg i.p.): 176 ± 21
- immobility duration (mice; 75 mg/kg i.p.): 170 ± 39
- immobility duration (mice; 100 mg/kg i.p.): 187 ± 25
- inhibition in vivo at 20 mg/kg (mice; Mus musculus, ip, 1 h, 20 mg/kg i.p., vs control (dosage 0), read-out: immobility duration < % (decrease)): 8%
- inhibition in vivo at 25 mg/kg (mice; Mus musculus, ip, 1 h, 25 mg/kg i.p., vs control (dosage 0), read-out: immobility duration < % (decrease)): 16%
- inhibition in vivo at 50 mg/kg (mice; Mus musculus, ip, 1 h, 50 mg/kg i.p., vs control (dosage 0), read-out: immobility duration < % (decrease)): 23%
- inhibition in vivo at 60 mg/kg (mice; Mus musculus, ip, 1 h, 60 mg/kg i.p., vs control (dosage 0), read-out: immobility duration < % (decrease)): 16%
- inhibition in vivo at 75 mg/kg (mice; Mus musculus, ip, 1 h, 75 mg/kg i.p., vs control (dosage 0), read-out: immobility duration < % (decrease)): 19%
- inhibition in vivo at 100 mg/kg (mice; Mus musculus, ip, 1 h, 100 mg/kg i.p., vs control (dosage 0), read-out: immobility duration < % (decrease)): 11%
- LD50 ([1]; ip): > 1000 mg/kg

Structure (SMILES): CC(C)Sc1nnc(N)s1 [B35]
- immobility duration (mice; 10 mg/kg i.p.): 165 ± 42
- immobility duration (mice; 15 mg/kg i.p.): 194 ± 14
- immobility duration (mice; 20 mg/kg i.p.): 185 ± 11
- inhibition in vivo at 10 mg/kg (mice; [4]): 17%
- minimal effective dose (mice; Mus musculus, ip, 1 h): 10 mg/kg

Structure (SMILES): COc1cccc(CSc2nnc(N)s2)c1 [B63]
- Social Interaction increase (%) (rats; 0.25 mg/kg): 14%
- Social Interaction increase (%) (rats; 0.5 mg/kg): 40%
- Social Interaction increase (%) (rats; 1 mg/kg): 70%
- Social Interaction increase (%) (rats; 2.5 mg/kg): 73%
- immobility duration (mice; 0.05 mg/kg i.p.): 187 ± 34
- immobility duration (mice; 0.1 mg/kg i.p.): 171 ± 26
- immobility duration (mice; 0.25 mg/kg i.p.): 159 ± 22
- immobility duration (mice; 0.5 mg/kg i.p.): 166 ± 25
- immobility duration (mice; 1 mg/kg i.p.): 174 ± 30
- immobility duration (mice; 10 mg/kg i.p.): 187 ± 26
- inhibition in vivo at 0.1 mg/kg (mice; [5]): 15%
- inhibition in vivo at 0.25 mg/kg (mice; [2]): 21%
- inhibition in vivo at 0.5 mg/kg (mice; [3]): 18%
- inhibition in vivo at 1 mg/kg (mice; [6]): 14%

Structure (SMILES): CC(=O)Nc1nnc(SC(C)C)s1 [B36, 2-N-acethyl-5-isopropylmercapto-1,3,4thiadiazole]
- immobility duration (mice; 0.5 mg/kg i.p.): 178 ± 33
- immobility duration (mice; 1 mg/kg i.p.): 159 ± 23
- immobility duration (mice; 2.5 mg/kg i.p.): 188 ± 16
- immobility duration (mice; 5 mg/kg i.p.): 196 ± 22
- immobility duration (mice; 12.5 mg/kg i.p.): 199 ± 15
- inhibition in vivo at 1 mg/kg (mice; [6]): 19%
- minimal effective dose (mice; Mus musculus, ip, 1 h): 1 mg/kg

Structure (SMILES): CC(=O)N(C)c1nnc(SC(C)C)s1 [B39, 2-(N-methyl-N-acethyl)-amino-5-isopropylmercapto-1,3,4-thiadiazole]
- immobility duration (mice; 0.125 mg/kg i.p.): 180 ± 19
- immobility duration (mice; 0.25 mg/kg i.p.): 155 ± 36
- immobility duration (mice; 0.5 mg/kg i.p.): 169 ± 30
- immobility duration (mice; 1 mg/kg i.p.): 161 ± 14
- immobility duration (mice; 5 mg/kg i.p.): 176 ± 28
- immobility duration (mice; 10 mg/kg i.p.): 204 ± 18
- inhibition in vivo at 0.25 mg/kg (mice; [2]): 18%
- inhibition in vivo at 0.5 mg/kg (mice; [3]): 10%
- inhibition in vivo at 1 mg/kg (mice; [6]): 14%

Structure (SMILES): COc1ccc(CSc2nnc(NC(C)=O)s2)cc1 [B53]
- immobility duration (mice; 0.1 mg/kg i.p.): 182 ± 16
- immobility duration (mice; 0.5 mg/kg i.p.): 165 ± 25
- immobility duration (mice; 1 mg/kg i.p.): 151 ± 29
- immobility duration (mice; 2 mg/kg i.p.): 195 ± 31
- inhibition in vivo at 0.5 mg/kg (mice; [3]): 10%
- inhibition in vivo at 1 mg/kg (mice; [6]): 15%

Structure (SMILES): COc1ccc(CSc2nnc(N)s2)cc1 [B51]
- immobility duration (mice; 0.01 mg/kg i.p.): 200 ± 19
- immobility duration (mice; 0.03 mg/kg i.p.): 164 ± 29
- immobility duration (mice; 0.1 mg/kg i.p.): 166 ± 13
- immobility duration (mice; 0.3 mg/kg i.p.): 158 ± 24
- immobility duration (mice; 1.25 mg/kg i.p.): 174 ± 40
- immobility duration (mice; 5 mg/kg i.p.): 189 ± 15
- inhibition in vivo at 0.03 mg/kg (mice; Mus musculus, ip, 1 h, 0.03 mg/kg i.p., vs control (dosage 0), read-out: immobility duration < % (decrease)): 13%
- inhibition in vivo at 0.1 mg/kg (mice; [5]): 12%
- inhibition in vivo at 0.3 mg/kg (mice; Mus musculus, ip, 1 h, 0.3 mg/kg i.p., vs control (dosage 0), read-out: immobility duration < % (decrease)): 16%
- minimal effective dose (mice; Mus musculus, ip, 1 h): ~0.5 mg/kg

Structure (SMILES): Nc1nnc(SCc2ccccc2)s1 [B16, 2-amino-5-benzylmercapto-1,3,4-thiadiazole]
- Social Interaction increase (%) (rats; 0.5 mg/kg): 40%
- Social Interaction increase (%) (rats; 1 mg/kg): 67%
- Social Interaction increase (%) (rats; 2.5 mg/kg): 94%
- Social Interaction increase (%) (rats; 5 mg/kg): 51%
- shape of dose-response curve, Social Interaction (rats; 0.5-5 mg/kg): Gaussian shape
- solubility in alcohols, chloroform, ethyl acetate, acetone (Solubility in solvents): soluble
- solubility in ether and water (Solubility in solvents): insoluble
- immobility duration (mice; 1 mg/kg i.p.): 197 ± 22
- immobility duration (mice; 5 mg/kg i.p.): 171 ± 23
- immobility duration (mice; 10 mg/kg i.p.): 132 ± 45
- immobility duration (mice; 15 mg/kg i.p.): 186 ± 14
- immobility duration (mice; 20 mg/kg i.p.): 199 ± 16
- inhibition in vivo at 5 mg/kg (mice; Mus musculus, ip, 1 h, 5 mg/kg i.p., vs control (dosage 0), read-out: immobility duration < % (decrease)): 16%
- inhibition in vivo at 10 mg/kg (mice; [4]): 35%
- inhibition in vivo at 15 mg/kg (mice; Mus musculus, ip, 1 h, 15 mg/kg i.p., vs control (dosage 0), read-out: immobility duration < % (decrease)): 8%
- minimal effective dose (mice; Mus musculus, ip, 1 h): 5 to 10 mg/kg
- LD50 ([1]; ip): > 600 mg/kg
- LD50 ([1]; po, per os): > 600 mg/kg

Structure (SMILES): CC(=O)Nc1nnc(SCc2ccc([N+](=O)[O-])cc2)s1 [B45]
- immobility duration (mice; 0.1 mg/kg i.p.): 182 ± 22
- immobility duration (mice; 0.25 mg/kg i.p.): 167 ± 26
- immobility duration (mice; 0.5 mg/kg i.p.): 166 ± 18
- immobility duration (mice; 1 mg/kg i.p.): 183 ± 17
- inhibition in vivo at 0.25 mg/kg (mice; [2]): 16%
- inhibition in vivo at 0.5 mg/kg (mice; [3]): 16%
